How the values were obtained:
PC-12 cells = assay: 14C-choline incorporation into phospholipids in PC-12 cells; type: cell-based; conditions: for Phosphatidylcholine (PC) synthesis (incorporation of 14C label into PC): 18 hr pre-incubation with 5 μM fatty acid, FIG. 1
Procedure: PC-12 cells were maintained in Dulbecco's modified Eagle's medium (DMEM)+10% fetal bovine serum (FBS). For experiments, cells were grown in quintuplicate collagen-coated 35 millimeter (mm) dishes. Cells were incubated for 18 hours (hr) in serum-free DMEM containing 28 μM choline+/−5 micromolar (μM) of DHA, oleic acid, or palmitic acid. Cells were then labeled for 2.5 hr with 0.5 microcurie (μCi)/ml ^14C-choline in serum-free DMEM containing 10-micromolar (μM) choline.
Cells were homogenized in 100 volumes of ice-cold deionized water using a tissue degrader (Polytron PT 10-35, Kinematica A G, Switzerland); 1 ml of aliquots were then mixed with 3 ml of chloroform+methanol mixture (2:1 v/v) and vortexed vigorously for 30 seconds. After cooling for 1 h on ice, the mixture was mixed sequentially with 3 ml of chloroform+methanol mixture (2:1 v/v) and 1 ml of ice-cold deionized water. The mixture was vortexed vigorously and allowed to stand overnight in the cold room (18 h). The organic (lower) and aqueous (upper) phases of the mixtures were separated by centrifugation (10 min at 4° C.; 1000 g). An aliquot (2 ml) of the upper phase was used for determination of CDP-Choline (see below), and 0.1-0.4 ml aliquots of the lower phase were dried under vacuum for phospholipid analysis. Residues of 0.1 ml aliquots of the lower phase were assayed for total phospholipid content by measuring phosphorus. Residues of 0.4 ml aliquots of the lower phase were reconstituted in 40 μl methanol and subjected to thin-layer chromatography using silica G plates (Adsorbosil Plus-1®, Alltech), and a system consisting of chloroform/ethanol/triethylamine/water (30:34:30:8) as the mobile phase. Phospholipid standards were used to identify the corresponding bands under UV light after the plates were sprayed with 0.1% diphenylhexatriene in petroleum ether. Bands for individual phospholipid classes (PC, PE, SM, PS and PI) were scraped off the plates and extracted into 1 ml of methanol; dried under vacuum; and assayed for phosphorus content. Total phosphorus was determined by comparison with standard curves by using KH2PO4 run with each assay. […] Absorbance was measured spectrophotometrically at 820 nm. Phospholipid mass was determined by multiplying the phosphorus content by 25.
In order to assess the effect of omega-3 fatty acids on phospholipid synthesis, PC-12 cells were incubated with ^14C-labeled choline, following an 18-hour pre-incubation with or without DHA. Incorporation of label into phospholipids was then measured. […]
To further characterize the stimulation of phospholipid synthesis by omega-3 fatty acids, PC-12 cells were pre-treated with different doses of DHA and exposed to labeled choline as described in Example 1, then incorporation of ^14C-label into phospholipids was measured. […]

SHSY-5Y cells = assay: 14C-choline incorporation into phospholipids in SHSY-5Y cells; type: cell-based, human; conditions: for phospholipid synthesis: 18 hr with 10 μM fatty acid, FIG. 3A
Procedure: (§1) Cells were homogenized in 100 volumes of ice-cold deionized water using a tissue degrader (Polytron PT 10-35, Kinematica A G, Switzerland); 1 ml of aliquots were then mixed with 3 ml of chloroform+methanol mixture (2:1 v/v) and vortexed vigorously for 30 seconds. After cooling for 1 h on ice, the mixture was mixed sequentially with 3 ml of chloroform+methanol mixture (2:1 v/v) and 1 ml of ice-cold deionized water. The mixture was vortexed vigorously and allowed to stand overnight in the cold room (18 h). The organic (lower) and aqueous (upper) phases of the mixtures were separated by centrifugation (10 min at 4° C.; 1000 g). An aliquot (2 ml) of the upper phase was used for determination of CDP-Choline (see below), and 0.1-0.4 ml aliquots of the lower phase were dried under vacuum for phospholipid analysis. Residues of 0.1 ml aliquots of the lower phase were assayed for total phospholipid content by measuring phosphorus. Residues of 0.4 ml aliquots of the lower phase were reconstituted in 40 μl methanol and subjected to thin-layer chromatography using silica G plates (Adsorbosil Plus-1®, Alltech), and a system consisting of chloroform/ethanol/triethylamine/water (30:34:30:8) as the mobile phase. Phospholipid standards were used to identify the corresponding bands under UV light after the plates were sprayed with 0.1% diphenylhexatriene in petroleum ether. Bands for individual phospholipid classes (PC, PE, SM, PS and PI) were scraped off the plates and extracted into 1 ml of methanol; dried under vacuum; and assayed for phosphorus content. Total phosphorus was determined by comparison with standard curves by using KH2PO4 run with each assay. To each sample was added 0.5 ml of 4.5% HclO4/27% H2SO4 and tubes were heated at 180° C. for 3 h. After cooling to room temperature, 5 ml of the color reagent (a 10:1 dilution of solutions containing 2.5 mg/ml ammonium molybdate, 8.2 mg/ml sodium acetate and 100 mg/ml ascorbic acid respectively) was added and the tubes were incubated for 2 h, 37° C. Absorbance was measured spectrophotometrically at 820 nm. Phospholipid mass was determined by multiplying the phosphorus content by 25.
SHSY-5Y cells were grown to near confluency in DMEM+10% FBS in 35 mm dishes. Cells were incubated for 18 hr in serum-free DMEM+1% FBS containing 30 μM choline+/−10 μM of DHA, arachidonic acid, or palmitic acid. Cells were then labeled, and labeled phospholipids were quantified as described for Example 1.
DHA was dissolved in ethanol to a […] concentration and frozen in 10 microliter aliquots at −80° C. For each experiment, one aliquot was diluted in ethanol to 10 micromolar; the volume giving the desired final solution in incubation medium was mixed with an equal volume of BSA solution (1 gm/ml).

brain phospholipids = assay: Brain phospholipid levels after UMP diet and/or PUFA gavage; type: in vivo, gerbil; conditions: for brain phospholipid levels: 3 weeks, summary of Table 6; for increase in brain total phospholipids over control: DHA 300 mg/kg/day gavage, UMP 0.5% of chow
Procedure: as §1
Control standard diet (Table 4) consisted of Teklad Global 16% protein rodent diet (Harlan Teklad, Madison, Wis.), which contained 0.1% choline chloride (CC), corresponding to a daily dose of 50 mg/kg/day. UMP was provided as 0.5% UMP.2Na^+ weight/weight, added to the control diet, also prepared by Harlan Teklad, corresponding to 240 mg/kg/day UMP. DHA was administered as 300 mg/kg/day in 200 microliter (mcL)/day 5% Arabic Gum solution, while groups not receiving DHA were administered vehicle (5% Arabic Gum) alone. DHA was provided by Nu-Chek Prep (Elysian, Minn.) and UMP by Numico (Wagenigen, NL).
Gerbils were anesthetized with ketamine and xylazine (80 and 10 mg/kg bwt, i.p.) and sacrificed by immersing the head into liquid nitrogen for 2 min, followed by decapitation. Brains were immediately and quickly (30 seconds) removed using a bone rongeur and stored at −80° C.
Frozen brain hemispheres were weighed and homogenized in 100 volumes of ice-cold deionized water using a tissue degrader (Polytron PT 10-35, Kinematica A G, Switzerland), then analyzed as described in Example 1.
Protein in whole brain homogenate sample was measured for using bicinchoninic acid reagent (Perkin Elmer, Norwalk, Conn., USA). DNA was measured by measuring 460 nm emission of samples on a fluorometer in the presence of bisbenzimidizole, a fluorescent dye known as Hoechst H 33258 (American Hoechst Corporation), which has an excitation maximum at 356 nm and an emission maximum of 458 when bound to DNA.
Adult gerbils were administered control standard diet (Table 4) with our without 0.5% UMP and/or 300 mg/kg/day DHA, EPA, or AA. Groups not receiving DHA were administered vehicle (5% Arabic Gum) alone.

brain CDP-choline = assay: Brain CDP-choline and CDP-ethanolamine levels (HPLC); type: in vivo, gerbil; conditions: 28 days; for brain CDP-choline levels: FIG. 5A; for brain CDP-ethanolamine levels: FIG. 5B
Procedure: FIG. 5. Effects of DHA on brain CDP-choline levels (A) and CDP-ethanolamine levels (B). Groups of 8 gerbils received either a control or a UMP-containing diet, and, by gavage, DHA (in a vehicle of 5% gum Arabic solution) or 5% gum Arabic solution alone for 28 days. On the 29th day brains were harvested and assayed for CDP-choline. Data are presented as means±SEM. Statistical analysis was performed using one- or two-way ANOVA followed by Tukey test. a: P<0.05 when compared with the values for control diet plus vehicle group; b: P<0.05 when compared with values for UMP diet plus vehicle group.
Aliquots (2 ml) of the upper (aqueous) phase were dried under a vacuum, reconstituted, and injected into an HPLC. The dried samples were reconstituted in 100-200 μl water and were analyzed by HPLC on an anion exchange column (Alltech Hypersil APS-2, […], 250×4.6 mm). CDP-choline was eluted with a linear gradient of buffers A (H3PO4, 1.75 mM, pH 2.9) and B (NaH2PO2, 500 mM, pH 4.5) from 0 to 100% B over period of 30 min. With this system, CDP-choline was resolved from closely co-eluting substances such as UMP in an isocratic system over a period of 40 min. The retention time for CDP-choline was 9.5 min. The column was washed with buffer B at the end of each experiment and every several days to remove retained nucleotides. Individual nucleotide peaks were detected by UV absorption at 280 nm and were identified by comparison with the positions of authentic standards, as well as by the addition of nucleotide standards to samples.

In the case of `CCC=CCC=CCC=CCC=CCC=CCC=CCCC(=O)O` [DHA, 4,7,10,13,16,19-docosahexaenoic acid], the “Phosphatidylcholine (PC) synthesis (incorporation of 14C label into PC)” value (“Phosphatidylcholine (PC) synthesis” below) (PC-12 cells) is reported as “significantly increased”, the “synthesis of phospholipids (incorporation of 14C-label)” value (PC-12 cells; different doses of DHA, dose-dependent, FIG. 2) is reported as “increased” and the phospholipid synthesis (SHSY-5Y cells) is reported as “not”. The “brain phospholipid, pmol phospholipid per milligrams (mg) protein” value (brain phospholipids; FIG. 4A, gerbils, 4 weeks, ANOVA vs control) was “statistically significant effect”, the brain phospholipid levels (brain phospholipids; gerbils) was “increased” and the “increase in brain total phospholipids over control” value (brain phospholipids; gerbils, 4 weeks) was 12%. The “increase in brain levels of PC” value (brain phospholipids; vs control, Table 5A) was 22%, the “increase in brain levels of PE” value (brain phospholipids; vs control, Table 5A) was 20% and the “increase in brain levels of PI” value (brain phospholipids; vs control, Table 5A) was 52%. For the same molecule, the “increase in brain levels of sphingomyelin” value (brain phospholipids; vs control, Table 5A) was 24%, the “brain CDP-choline levels” value (brain CDP-choline) was “decreased” and the “brain CDP-ethanolamine levels” value (brain CDP-choline) was “decreased”.

In the case of `CCC=CCC=CCC=CCC=CCC=CCCCC(=O)O` [EPA, 5,8,11,14,17-eicosapentaenoic acid], the brain phospholipid levels (brain phospholipids; gerbils) is reported as “increased”.

`O=c1ccn([C@@H]2O[C@H](COP(=O)(O)O)[C@@H](O)[C@H]2O)c(=O)[nH]1` [UMP, uridine monophosphate] was tested, and the “effects on brain phospholipids” value (brain phospholipids; After 1 week of treatment) was “no significant effects”, the PtdEtn (brain phospholipids; Table 5 part A, gerbil brain) was 84 ± 8 nmol/mg prt and the “increases in all 5 of the phospholipids” value (brain phospholipids; Treatment for 3 weeks, Table 5B) was “smaller but still significant increases”. For the same molecule, the “increase in brain total phospholipids over control” value (brain phospholipids; gerbils, 4 weeks) was 5%, the “increase in brain levels of PC” value (brain phospholipids; vs control, Table 5A) was 13% and the “increase in brain levels of PE” value (brain phospholipids; vs control, Table 5A) was 29%. The “increase in brain levels of PI” value (brain phospholipids; vs control, Table 5A) was 48%, the “brain CDP-choline levels” value (brain CDP-choline) was “decreased” and the “brain CDP-ethanolamine levels” value (brain CDP-choline) was “decreased”.

In the case of `CCCCCC=CCC=CCC=CCC=CCCCC(=O)O` [arachidonic acid, 5,8,11,14-eicosatetraenoic acid], the phospholipid synthesis (SHSY-5Y cells) is reported as “enhanced”, the “synthesis of total phospholipids, PC, and phosphatidylethanolamine” value (SHSY-5Y cells; range of dosages, dose-dependent, FIG. 3B) is reported as “increased” and the brain phospholipid levels (brain phospholipids; gerbils) is reported as “increased”.

With `CCCCCCCC/C=C\CCCCCCCC(=O)O` [oleic acid, reference compound] the “Phosphatidylcholine (PC) synthesis” value (PC-12 cells) was “not”.

With `CCCCCCCCCCCCCCCC(=O)O` [palmitic acid, reference compound] the “Phosphatidylcholine (PC) synthesis” value (PC-12 cells) was “not” and the phospholipid synthesis (SHSY-5Y cells) was “not”.

Source: US10525071B2, “Compositions containing PUFA and methods of use thereof” (MASSACHUSETS INSTITUE OF TECHNOLOGY, priority 2005, dated 2020)
